The values that follow are results of earlier work, collected in patent publication US9353185B2, “Antibodies” (Affitech Research AS, priority 2010, dated 2016).

The subject of series [1] is acute myeloid leukaemia (AML). The following applies: Mozobil pre-conditioning prior to MEC chemotherapy; patients available for first follow-up evaluation; cited from earlier work.
The subject of series [2] is X4 HIV strains. The following applies: in vitro and in vivo in clinical trials in humans; cited from earlier work.
For series [3], the system named is Th2-mediated inflammatory response. Conditions: Hu et al, 2006; cited from earlier work.
Series [4] relates to CXCR4 expressing cell lines. Conditions: range of CXCR4 expressing cell lines; cited from earlier work.
The test system of series [5] is AML and lymphoma tumor xenograft models. Conditions: multiple AML and lymphoma tumor xenograft models; cited from earlier work.

With `c1cc(CN2CCCNCCNCCCNCC2)ccc1CN1CCCNCCNCCCNCC1` [AMD3100, plerixafor], in series [1], the “complete remission (CR or CRi)” value is reported as 50% of patients. Moreover, the “inhibition of entry of X4 HIV strains” value in series [2] is given as “very high efficacy”.

As for `c1ccc(CNCc2ccc(CN3CCCNCCNCCCNCC3)cc2)nc1` [AMD3465], the “effect on Th2-mediated inflammatory response” value in series [3] is listed as “abrogate the Th2-mediated inflammatory response”.

Turning to “MDX-1338: anti-human CXCR4-specific, fully human monoclonal antibody from Medarex; an IgG4”, in series [4], the induction of apoptosis result is given as “induces apoptosis”. In series [5], the anti-tumor activity result was “has anti-tumor activity”.
